Earlier results on 1 substance are cited in patent US7479387B2, “Compositions and methods for the synthesis and subsequent modification of uridine-5′-diphosphosulfoquinovose (UDP-SQ)” (Michigan State University, priority 2000, dated 2009).

One series relates to tumor promotion. The conditions noted are these: background statement, Shirahashi et al. 1993.
In series [1] the target is T1, Human Immunodeficiency Virus Reverse Transcriptase 1 (HIV-RT1) (Human immunodeficiency virus type 1 group M subtype B, UniProt P03366).
T1 construct: Human Immunodeficiency Virus Reverse Transcriptase 1 (HIV-RT1)
The settings on record: background statement, Ohta et al. 1998.

Series [2] deals with mammalian DNA polymerases. The settings on record: background statement, Ohta et al. 1998.

As for “6-sulfo-α-D-quinovosyl diacyglycerol [SQDG]”, the anti-tumor promoting properties result with tumor promotion is on record as “anti-tumor promoting properties”. Also, the “inhibition of HIV-RT1” value in series [1] is listed as “potent inhibitor”. Also, in series [2], the “inhibition of several mammalian DNA polymerases” value was “potent inhibitor”.
